# Values joined by “and” are separate entries in the source; they are usually repeats but may differ in a detail not shown here. Equal entries are not always repeated.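 Method: 48-hour compound exposure of cells in 96-well plates, five concentrations, linear interpolation of endpoints. GI50 = concentration required for 50% inhibition of growth. TGI is the concentration that stops growth completely.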 Where a SMILES comes first, the peptide text is derived from it. The star is where a group is joined. Cbz = O=C(OCc1ccccc1)*
# How the values were obtained:
# Assay in all cases: NCI anticancer screen, dose series, 48 h
# RPMI-8226 leukemia = system: RPMI-8226 leukemia
# SK-MEL-2 melanoma = system: SK-MEL-2 melanoma
# SK-MEL-28 melanoma = system: SK-MEL-28 melanoma
# SW-620 colon = system: SW-620 colon
# UACC-62 melanoma = system: UACC-62 melanoma
# COLO 205 colon = system: COLO 205 colon
# HCC-2998 colon = system: HCC-2998 colon
# NCI-H522 lung = system: NCI-H522 lung
Structure (SMILES),TGI (RPMI-8226 leukemia) [µM],TGI (SK-MEL-2 melanoma) [µM],TGI (SK-MEL-28 melanoma) [µM],TGI (SW-620 colon) [µM],TGI (UACC-62 melanoma) [µM],TGI (COLO 205 colon) [µM],TGI (HCC-2998 colon) [µM],TGI (NCI-H522 lung) [µM],GI50 (RPMI-8226 leukemia),GI50 (HCC-2998 colon) [µM],GI50 (NCI-H522 lung) [µM],GI50 (SW-620 colon) [µM],GI50 (UACC-62 melanoma) [µM],GI50 (COLO 205 colon) [µM],GI50 (SK-MEL-2 melanoma) [µM],GI50 (SK-MEL-28 melanoma) [µM]
C#CCOC(=O)C=[N+]=[N-],> 10,> 10,> 10,> 10,> 10,–,–,–,–,–,–,–,–,–,–,–
N#C/C=C(/NC(=O)Nc1ccccc1)N1CCCC1,> 100,> 52.6,> 83.3,> 63.7,> 100,> 100,> 53,> 60.8,–,–,–,–,–,–,–,–
CC(C)(C)OC(=O)C1C(=O)NC(=O)CC1C(OCc1ccccc1)C(OCc1ccccc1)C(COCc1ccccc1)OCc1ccccc1 (stereo not given),> 100,–,> 100,> 100,–,> 100,> 100,–,78.7 µM and 23 µM,–,–,–,–,–,–,–
CCCCCCCCCCCCCOCCOCCOCCCCC(O)CCCCCCCCCC1=C[C@H](C)OC1=O (stereo not given in full),35.9,63,31.5,76.9,54,52.3,74.4,16.7,–,–,–,–,–,–,–,–
CCN(CC)c1c(-c2c(OC(C)C)c(=O)c2=O)c(=O)n2ccsc2c1OC(C)=O,> 100,> 100,> 100,> 100,> 100,> 100,> 100,> 100,–,–,–,–,–,–,–,–
CCOC(=O)c1nc2ccccc2nc1Nc1cc(OC)c(OC)c(OC)c1,> 100,> 100,> 100,–,> 100,> 100,> 100,> 100,–,–,–,–,–,–,–,–
c1ccc(C/C(=N\Nc2nc3ccccc3[nH]2)c2ccccn2)cc1,0.131,15.3,11,15.1,2.79,–,30.9,0.105,–,–,–,–,–,–,–,–
C[C@]12CCC(=O)C=C1CC[C@@H]1[C@@H]2CC[C@]2(C)C(=O)/C(=C/c3ccc([N+](=O)[O-])cc3)C[C@@H]12,> 100,> 100,> 100,> 100,46.2,> 100,> 100,> 100,–,–,–,–,–,–,–,–
c1ccc(CCCN2C3CCC2CN(CCOC(c2ccccc2)c2ccccc2)C3)cc1,7.83,22.9,28.2,44.8,25.5,4.36,18,23,–,–,–,–,–,–,–,–
O=[N+]([O-])C1=Cc2c(O)ccc(O)c2C2OC=CC12 (stereo not given),> 100,41,> 74.5,> 77.4,15.9,> 63.8,> 57.8,18.1,–,–,–,–,–,–,–,–
Nc1nc(N)c2cc(-c3cc4ccccc4[nH]3)ccc2n1,32.4,36.4,48.7,90.3,33.9,24,–,42.4,–,–,–,–,–,–,–,–
CC(=O)N1N=C(c2ccccc2)NC(=O)C1c1cc(C)c(O)c(C)c1 (stereo not given),> 100,72.2,> 100,> 100,40,> 100,45.9,37,–,–,–,–,–,–,–,–
COP(=O)(OC)[C@@](O)(c1ccccc1)[C@@H](O)[C@H](O)c1ccccc1,–,> 100,> 100,> 100,> 100,> 100,–,> 100,–,–,–,–,–,–,–,–
CC(=O)Oc1ccc2c(c1)O/C(=C\c1ccc(N(C)C)cc1)C2=O,> 100,–,> 100,> 100,> 100,> 100,> 100,66.2,–,–,–,–,–,–,–,–
Cc1cc2c(cc1Cl)SSc1cc(Cl)c(C)cc1S(=O)(=O)Nc1nc(N)nn1C(O)n1nc(N)nc1NS2(=O)=O,> 10,> 10,> 10,> 10,–,> 10,> 10,> 10,–,–,–,–,–,–,–,–
C[C@]12CC[C@H]3[C@@H](CC=C4C[C@@H](N5CCCC5)CC[C@@]43C)[C@@H]1C/C(=C\c1ccc([N+](=O)[O-])cc1)[C@@H]2O,38.5,–,28.2,36.6,29.3,32.6,–,32,–,–,–,–,–,–,–,–
CSC(=Nc1ccccc1)c1c(C)[nH]n(-c2ccccc2)c1=O,> 100,> 100,> 100,> 100,> 100,> 100,> 100,> 100,–,–,–,–,–,–,–,–
CCOP(=O)(OCC)/C(C#N)=C/c1nc[nH]c1C,> 100,> 100,> 100,> 100,> 100,> 100,> 100,> 100,–,–,–,–,–,–,–,–
COC(=O)C12CCCN1CCC2,–,> 100,> 100,> 100,> 100,> 100,> 100,> 100,–,–,–,–,–,–,–,–
Cc1ccc2[nH]c3c(c2c1)C1CCC(C(C)(C)C)CC1C1C(=O)N(c2ccc(Oc4ccccc4)cc2)C(=O)C31 (stereo not given),40.5,> 100,> 100,> 100,> 100,> 100,> 100,45,–,–,–,–,–,–,–,–
Cc1cc2c3c(c1)S(=O)(=O)c1cc(Cl)ccc1N3CCC2,–,> 100,> 100,> 100,> 100,> 100,> 100,–,–,–,–,–,–,–,–,–
COc1ccc(OC)c([N+](=O)[O-])c1-c1nc2sc(Cl)cn2c1/C=N/N=C(N)N,> 100,38.8,33.4,55,29.5,> 100,35.6,37.9,–,–,–,–,–,–,–,–
NC(=O)N/N=C(\Cc1cc(=O)oc2cc(O)ccc12)C(=O)Nc1ccccc1C(N)=O,–,> 100,> 100,> 100,> 100,> 100,> 100,> 100,–,–,–,–,–,–,–,–
CC1=C[C@H](C[C@]2(C)c3c(c4c(C)cccc4oc3=O)O[C@@H]2C)OC1=O,18.1,> 100,–,75,> 100,> 100,> 100,49.6,–,–,–,–,–,–,–,–
Cc1cc(C)c2c(-c3ccccc3)cc(=O)[nH]c2c1,> 100,> 100,> 100,> 100,> 100,> 100,> 100,> 100,–,–,–,–,–,–,–,–
CCN(CC)C1=Nc2ccccc2-n2ccnc2C1,–,> 100,> 100,> 100,> 100,> 100,> 100,> 100,–,–,–,–,–,–,–,–

Structure (SMILES),TGI (RPMI-8226 leukemia) [µM],TGI (SK-MEL-2 melanoma) [µM],TGI (SK-MEL-28 melanoma) [µM],TGI (SW-620 colon) [µM],TGI (UACC-62 melanoma) [µM],TGI (COLO 205 colon) [µM],TGI (HCC-2998 colon) [µM],TGI (NCI-H522 lung) [µM],GI50 (RPMI-8226 leukemia),GI50 (HCC-2998 colon) [µM],GI50 (NCI-H522 lung) [µM],GI50 (SW-620 colon) [µM],GI50 (UACC-62 melanoma) [µM],GI50 (COLO 205 colon) [µM],GI50 (SK-MEL-2 melanoma) [µM],GI50 (SK-MEL-28 melanoma) [µM]
Cc1cccc(-c2cc(=O)c3cccnc3[nH]2)c1,> 100,–,> 100,> 100,> 100,7.5,13.2,8.25,–,–,–,–,–,–,–,–
Fc1ccc(/C=C2\COCC3=C2NC(=S)NC3c2ccc(F)cc2)cc1 (stereo not given),44.4,28.6,–,36,32.4,35.1,32.7,34.2,–,–,–,–,–,–,–,–
CC(C)(C)c1ccc(O)c(C(O)c2ccccn2)c1 (stereo not given),> 100,–,> 100,> 100,26.4,> 100,85.9,> 100,–,–,–,–,–,–,–,–
O=[N+]([O-])C(/C(Cl)=C(/Cl)N1CCOCC1)=C1\Nc2ccccc2O1,> 100,> 100,> 100,> 100,> 100,> 100,> 100,–,–,–,–,–,–,–,–,–
COc1ccc(Nc2nc3ccccc3nc2-c2cccs2)cc1OC,> 10,> 10,> 10,> 10,> 10,> 10,> 10,> 10,–,–,–,–,–,–,–,–
CC1=NN(c2ccccc2)C(=O)/C1=C1\SC(c2ccccc2)(c2ccccc2)c2ccccc21,> 100,> 100,> 100,> 100,> 100,> 100,> 100,> 100,–,–,–,–,–,–,–,–
COC(=O)c1sc2nc(Nc3ccccc3)c(=Nc3ccccc3)sc2c1C,> 100,> 100,> 100,> 100,> 100,> 100,> 100,> 100,–,–,–,–,–,–,–,–
O=C1C(NS(=O)(=O)c2ccccc2)=C(n2ccnc2)C(=O)c2ccccc21,> 100,> 100,> 100,> 100,> 100,> 100,–,> 100,–,–,–,–,–,–,–,–
COc1cc2ncnc(Nc3cccc(Br)c3)c2cc1OC,> 100,12.9,> 44.9,> 50.2,17.5,20.8,10.2,11.1,–,–,–,–,–,–,–,–
O=C1CC(Nc2ccccc2)c2c(Cl)sc(Cl)c21 (stereo not given),0.0461,4.37,3.54,–,2.69,2.68,3.39,0.315,–,–,–,–,–,–,–,–
COc1cc(OC)c(-n2[nH]c(=O)n(C)c2=O)c(OC)c1,> 100,> 100,> 100,> 100,> 100,> 100,> 100,> 100,–,–,–,–,–,–,–,–
COc1cc2c(c3nc4ccccc4nc13)-c1ccc(SC)c(=O)cc1[C@@H](NC(C)=O)CC2,> 100,> 100,> 100,> 100,> 100,0.419,–,0.151,–,–,–,–,–,–,–,–
COc1ccc(-c2nc(-c3nc4cc(Cl)c(Cl)cc4[nH]3)c3ccccn23)cc1,> 100,–,–,> 100,> 100,–,> 100,82,3.74 µM,> 100,3.37,8.37,5.59,–,–,–
C[N+](C)(N)Cc1nc(-c2ccc(Cl)cc2)no1,> 100,> 100,> 100,> 100,> 100,> 100,–,> 100,–,–,–,–,–,–,–,–
Cc1ccc(S(=O)(=O)N(CC(O)COc2ccccc2)c2c(F)c(F)c(F)c(F)c2F)cc1 (stereo not given),12.7,30,31.6,36.2,33.5,29.8,34.5,–,–,–,–,–,–,–,–,–
O=C1c2cccnc2S(=O)(=O)N1c1ccc(Br)cc1,> 100,> 100,> 100,> 100,> 100,> 100,–,> 100,–,–,–,–,–,–,–,–
CCOC(=O)CCC(NC(=O)C(CC(=O)OC)NC(=O)OCc1ccccc1)C(=O)NC(CC(=O)OC)C(=O)NC(CCC(=O)OCC)C(=O)NC(CC(=O)OC)C(=O)NC(CCC(=O)OCC)C(=O)NC(CC(=O)OCC)C(=O)OCC (stereo not given) (Cbz-D(OMe)E(OEt)D(OMe)E(OEt)D(OMe)E(OEt)D(OEt)-OEt; configuration not given here),> 100,> 100,–,> 100,> 100,–,> 100,> 100,–,–,–,–,–,–,–,–
Cc1cccc(C)c1NC(=S)N/C=C(\C#N)C(N)=O,> 100,> 100,> 100,> 100,> 100,> 100,–,> 100,–,–,–,–,–,–,–,–
CC(Nc1cccc(Cl)c1)c1ccncc1 (stereo not given),> 100,> 100,> 100,> 100,–,> 100,–,> 100,–,–,–,–,–,–,–,–
OC1C2CN3CCN(C2)CC1(c1ccccc1)C3 (stereo not given),> 100,> 100,> 100,> 100,> 100,> 100,–,> 100,–,–,–,–,–,–,–,–
COc1ccccc1C1C(C#N)=C(N)SC(N)=C1C#N,32.9,> 100,> 100,> 100,–,> 100,> 100,76.2,12.3 µM,> 100,29.9,> 100,–,> 100,> 100,43.3
O=C(O)CSC1=NCCN1,> 100,> 100,> 100,> 100,> 100,> 100,–,> 100,–,–,–,–,–,–,–,–
CCOC(=O)CCCN,> 100,> 100,> 100,> 100,–,> 100,> 100,> 100,–,–,–,–,–,–,–,–
COc1nc2ncc([C@@H](OC(C)=O)[C@@H](COC(C)=O)OC(C)=O)nc2c(=O)n1C,> 100,> 100,> 100,> 100,> 100,> 100,–,> 100,–,–,–,–,–,–,–,–
C[C@]12C(=O)OC[C@H](c3ccccc3)N1C(=O)N(Cc1ccccc1)[C@@H]2CO,–,> 100,> 100,> 100,> 100,> 100,> 100,–,–,–,–,–,–,–,–,–
CN1CCN(c2n[nH]c(=O)c3c2nnn3Cc2ccccc2)CC1,> 100,> 100,> 100,–,–,> 100,> 100,–,–,–,–,–,–,–,–,–

# — PubChem BioAssay (NCI)
